Test results published in patent US20240109925A1, “Enhanced Anti-Proliferative and Antitumor Immune Effects of Mitochondria-Targeted Hydroxyurea” (The Medical College of Wisconsin, Inc., priority 2021, published 2024).
Read-outs that look alike come from different tables or passages of the source.

Legend:
[1] = system: mitochondrial complex III; assay: Complex III-dependent oxygen consumption (OCR), Seahorse XF-96, HCT116 cells; format: cell-based, human; conditions: 24 hr, HCT116, n = 4
Method: FIG. 2. Effects of HU and Mito-HUs on the oxygen consumption by mitochondrial complexes I and III (A) Dose-dependent effects of HU, Mito10-HU, Mito12-HU, Mito14-HU, Mito16-HU, and Mito20-HU on complex I- and complex III-dependent oxygen consumption were measured in HCT116 cells. HCT116 cells were treated with HU or Mito-HUs as indicated for 24 hr. Mitochondrial complex I activity (left) and complex III activity (right) were monitored by a Seahorse XF-96 analyzer. Either rotenone (complex I inhibitor) or antimycin A (complex III inhibitor) was acutely added and OCR assayed immediately. (B) The mitochondrial complex I (left) and III (right) dependent oxygen consumption (calculated as rotenone or antimycin A inhibitable OCR) are plotted against concentration of HU and Mito-HUs. Dashed lines represent the fitting curves used for determination of the IC50 values. Data shown are the means G SD.
Mitochondrial oxygen consumption was measured using the Seahorse XF-96 Extracellular Flux Analyzer (Agilent, North Billerica, MA) (Cheng et al., 2013, 2016; Boyle et al., 2018; Weinberg and Chandel, 2015). After cells were treated with HU or Mito-HUs for 24 hr, the OCR-based assessment of mitochondrial complex activities was carried out on acutely permeabilized cells in the presence of different mitochondrial substrates, i.e., pyruvate/malate for complex I and duroquinol for complex III (Cheng et al., 2016, 2019; Salabei et al., 2014; Wheaton et al., 2014). Rotenone, malonate, and antimycin A (Sigma-Aldrich, St. Louis, MO) were used as specific inhibitors of mitochondrial complexes I, II, and III, respectively. Briefly, cells that were intact after treatments were immediately permeabilized using the Seahorse XF Plasma Membrane Permeabilizer (Agilent). The mitochondrial complex I-induced OCR was assayed in mannitol and sucrose buffer (Salabei et al., 2014) containing 10 mM pyruvate and 1.5 mM malate (substrates for complex I) and 10 mM malonate (which inhibits complex II activities). The mitochondrial complex III-driven OCR was assayed in a mannitol and sucrose buffer containing 0.5 mM duroquinol (substrate for complex III) as well as […] and 10 mM malonate (which inhibit both complex I and II activities). The IC50 values were determined as previously reported (Cheng et al., 2019).

[2] = system: HCT116 human colon cancer cells; assay: Cell proliferation (cell confluence), IncuCyte Live-Cell Analysis system; format: cell-based; conditions: for IC50: Homo sapiens, at ~90% confluence of control; for Cell Confluence (%): when control cells reached ~90% confluence, n = 4
Description: FIG. 1. Effects of HU and Mito-HUs on proliferation of HCT116 human colon cancer cells (A) Effects of HU and Mito-HUs on the proliferation of HCT116 cells were monitored in the IncuCyte Live-Cell Analysis system. The IncuCyte Analyzer provides real-time updates on cell confluence, based on segmentation of high definition-phase contrast images. Representative cell images were shown as segmentation mask illustrated in brown when control cells reached 90% confluence (vertical solid black line). (B) The IC50 values were determined at the point at which control cells reached ˜90% confluence (vertical solid black line). Relative cell confluence (control is taken as 100%) is plotted against concentration. Dashed lines represent the fitting curves used to determine the IC50 values as indicated. Data shown are the means & SD.
(§1) The following cell lines were obtained from the American Type Culture Collection (Manassas, VA), where they were regularly authenticated: HCT116 (ATCC Cat #CRL-247, human colon cancer cells) and MiaPaCa-2 (ATCC Cat #CRL-1420, human pancreatic cancer cells). All cells were cultured in a humidified incubator at 37° C. and 5% carbon dioxide. HCT116 cells were maintained in RPMI 1640 medium (Thermo Fisher Scientific, Cat #11875), supplemented with 10% fetal bovine serum. MiaPaCa-2 cells were maintained in Dulbecco's Modified Eagle Medium (Thermo Fisher Scientific, Waltham, MA; Cat #11965) supplemented with 10% fetal bovine serum. All cells were stored in liquid nitrogen and used within 20 passages after thawing.
(§2) The IncuCyte Live-Cell Analysis system (Essen Bioscience Inc., Ann Arbor, MI) was used to monitor cell proliferation (Cheng et al., 2013, 2016; Boyle et al., 2018). As shown in previous publications (Cheng et al., 2013, 2016), this imaging system is probe-free and noninvasive, and enables continuous monitoring of cell confluence over several days. The increase in the percentage of cell confluence was used as a surrogate marker of cell proliferation. In a 96-well plate, cells were plated at 1,000 cells per well in triplicates and left to adhere overnight. Cells were then treated with HU and Mito-HUs, and the cell confluency was recorded over several days in the IncuCyte Live-Cell Analysis system.

[3] = system: MiaPaCa-2 human pancreatic cancer cells; assay: Cell proliferation, IncuCyte Live-Cell Analysis system; format: cell-based
Description: FIG. 7. Effects of HU and Mito10-HU on proliferation of MiaPaCa-2 human pancreatic cancer cells; MiaPaCa-2 cells treated with HU or Mito10-HU were monitored in the IncuCyte Live-Cell Analysis system. Cell proliferation was monitored in real-time with the continuous presence of indicated treatments until the end of each experiment. Data shown are the means±SD.
as §1, §2

[4] = system: HCT116 human colon cancer cells; assay: Cell proliferation (cell confluence), IncuCyte Live-Cell Analysis system; format: cell-based
[5] = HCT-116, HCT116, read-out: IC50 proliferation of HCT116 cells
[6] = HCT-116, mean ± SD, HCT116, read-out: IC50 Cell Proliferation (FIG. 1)

**Q.** What does the source list for NC(=O)NOCCCCCCCCCCCC[P+](c1ccccc1)(c1ccccc1)c1ccccc1.O=C([O-])C(F)(F)F [Mito12-HU, 12-[(carbamoylamino)oxy]-dodecyltriphenylphosphonium trifluoroacetate]?
**A.** Complex III activity (OCR, % of control) ([1]; 1.5 μM): 74.02 % of control; Complex III activity (OCR, % of control) ([1]; 2 μM): 55.15 % of control; Complex III activity (OCR, % of control) ([1]; 2.5 μM): 51.26 % of control; Complex III activity (OCR, % of control) ([1]; 4 μM): 35.02 % of control; Complex III activity (OCR, % of control) ([1]; 7.5 μM): 24.56 % of control; inhibition of proliferation of HCT116 cells ([2]; HCT116): dose-dependently inhibited proliferation; IC50 [2, 5]: 1800 nM; IC50 [2, 6]: 1800 ± 50 nM; inhibition of proliferation of MiaPaCa-2 cells [3]: increasing antiproliferative potencies

**Q.** How did the “Complex III activity (OCR, % of control)” value ([1]; 0.03 μM) turn out when NC(=O)NOCCCCCCCCCCCCCCCCCCCC[P+](c1ccccc1)(c1ccccc1)c1ccccc1.O=C([O-])C(F)(F)F [Mito20-HU, 20-[(carbamoylamino)oxy]-eicosanyltriphenylphosphonium trifluoroacetate] was run?
**A.** 98.80 % of control

**Q.** And the “Complex III activity (OCR, % of control)” value ([1]; 0.1 μM)?
**A.** 106.63 % of control

**Q.** And the “Complex III activity (OCR, % of control)” value ([1]; 0.2 μM)?
**A.** 101.11 % of control

**Q.** What about the “Complex III activity (OCR, % of control)” value ([1]; 0.3 μM) of the same compound?
**A.** 107.99 % of control

**Q.** What about the “Complex III activity (OCR, % of control)” value ([1]; 0.5 μM) of the same compound?
**A.** 102.43 % of control

**Q.** And the “Complex III activity (OCR, % of control)” value ([1]; 20 μM)?
**A.** 12.77 % of control

**Q.** And the “inhibition of proliferation of HCT116 cells” value (“inhibition … of HCT116 cells” below) ([2]; HCT116)?
**A.** dose-dependently inhibited proliferation

**Q.** And the IC50 [2, 5]?
**A.** 230 nM

**Q.** And the IC50 [2, 6]?
**A.** 230 ± 20 nM

**Q.** And the “inhibition of proliferation of MiaPaCa-2 cells” value [3]?
**A.** increasing antiproliferative potencies

**Q.** NC(=O)NOCCCCCCCCCC[P+](c1ccccc1)(c1ccccc1)c1ccccc1.O=C([O-])C(F)(F)F [Mito10-HU, 10-[(carbamoylamino)oxy]-decyltriphenylphosphonium trifluoroacetate] was tested. Which “antiproliferative effect, each alone (AZD-3965 experiment)” value ([4]; Mito10-HU (5 μM) or AZD-3965 (100 μM) independently, HCT-116) did it give?
**A.** negligible antiproliferative effects

**Q.** What about the “effect on cell proliferation, each alone (syrosingopine experiment)” value ([4]; Mito10-HU (5 μM) or syrosingopine (7.5 μM) independently, HCT116) of the same compound?
**A.** minimally affected cell proliferation

**Q.** And the “Cell Confluence (%)” value ([2]; 0.1 μM)?
**A.** 82.13%

**Q.** And the “Cell Confluence (%)” value ([2]; 0.3 μM)?
**A.** 84.69%

**Q.** And the “Cell Confluence (%)” value ([2]; 1 μM)?
**A.** 83.91%

**Q.** And the “Cell Confluence (%)” value ([2]; 3 μM)?
**A.** 64.31%

**Q.** What about the “Cell Confluence (%)” value ([2]; 5 μM) of the same compound?
**A.** 67.01%

**Q.** What about the “Cell Confluence (%)” value ([2]; 10 μM) of the same compound?
**A.** 26.84%

**Q.** What about the “Cell Confluence (%)” value ([2]; 12.5 μM) of the same compound?
**A.** 13.75%

**Q.** And the “Cell Confluence (%)” value ([2]; 15 μM)?
**A.** 8.68%

**Q.** And the “Cell Confluence (%)” value ([2]; 20 μM)?
**A.** 3.45%

**Q.** What about the “Cell Confluence (%)” value ([2]; 30 μM) of the same compound?
**A.** 1.74%

**Q.** And the “Cell Confluence (%)” value ([2]; 100 μM)?
**A.** 1.53%

**Q.** And the “inhibition … of HCT116 cells” value ([2]; HCT116)?
**A.** dose-dependently inhibited proliferation

**Q.** And the IC50 [2, 5]?
**A.** 8000 nM

**Q.** And the IC50 [2, 6]?
**A.** 8500 ± 410 nM

**Q.** What about the “inhibition of cell proliferation, combination with AZD-3965” value ([2]; Mito10-HU (5 μM) together with AZD-3965 (100 μM), HCT-116) of the same compound?
**A.** synergistically inhibited

**Q.** And the “inhibition of cell proliferation, combination with syrosingopine (combination index)” value ([2]; Mito10-HU (5 μM) together with syrosingopine (7.5 μM), HCT116)?
**A.** synergistic

**Q.** What about the “inhibition of proliferation of MiaPaCa-2 cells” value [3] of the same compound?
**A.** increasing antiproliferative potencies

**Q.** What about the “potency compared with HU in inhibiting MiaPaCa-2 cell proliferation” value [3] of the same compound?
**A.** ~100 times

**Q.** Which “inhibition … of HCT116 cells” value ([2]; HCT116) does the source give for NC(=O)NOCCCCCCCCCCCCCC[P+](c1ccccc1)(c1ccccc1)c1ccccc1.O=C([O-])C(F)(F)F [Mito14-HU, 14-[(carbamoylamino)oxy]-tetradecyltriphenylphosphonium trifluoroacetate] here?
**A.** dose-dependently inhibited proliferation

**Q.** What about the IC50 [2, 5] of the same compound?
**A.** 740 nM

**Q.** What about the IC50 [2, 6] of the same compound?
**A.** 900 ± 40 nM

**Q.** For NC(=O)NO [HU, Hydroxyurea], which “Cell Confluence (%)” value ([2]; 10 μM) is on record?
**A.** 89.91%

**Q.** What about the “Cell Confluence (%)” value ([2]; 30 μM) of the same compound?
**A.** 91.61%

**Q.** What about the “Cell Confluence (%)” value ([2]; 100 μM) of the same compound?
**A.** 66.96%

**Q.** What about the “Cell Confluence (%)” value ([2]; 150 μM) of the same compound?
**A.** 48.62%

**Q.** And the “Cell Confluence (%)” value ([2]; 200 μM)?
**A.** 31.90%

**Q.** What about the “Cell Confluence (%)” value ([2]; 250 μM) of the same compound?
**A.** 22.99%

**Q.** And the “Cell Confluence (%)” value ([2]; 300 μM)?
**A.** 17.30%

**Q.** What about the “Cell Confluence (%)” value ([2]; 400 μM) of the same compound?
**A.** 11.42%

**Q.** And the “Cell Confluence (%)” value ([2]; 500 μM)?
**A.** 8.79%

**Q.** What about the “Cell Confluence (%)” value ([2]; 1000 μM) of the same compound?
**A.** 5.40%

**Q.** What about the “Cell Confluence (%)” value ([2]; 3000 μM) of the same compound?
**A.** 3.43%

**Q.** What about the IC50 [2, 6] of the same compound?
**A.** 180000 ± 6700 nM

**Q.** What does the source list for NC(=O)NOCCCCCCCCCCCCCCCC[P+](c1ccccc1)(c1ccccc1)c1ccccc1.O=C([O-])C(F)(F)F [Mito16-HU, 16-[(carbamoylamino)oxy]-hexadecyltriphenylphosphonium trifluoroacetate]?
**A.** Complex III activity (OCR, % of control) ([1]; 0.4 μM): 81.38 % of control; Complex III activity (OCR, % of control) ([1]; 0.5 μM): 79.37 % of control; Complex III activity (OCR, % of control) ([1]; 0.6 μM): 80.12 % of control; Complex III activity (OCR, % of control) ([1]; 0.8 μM): 68.47 % of control; inhibition of proliferation of HCT116 cells ([2]; HCT116): dose-dependently inhibited proliferation; IC50 [2, 5]: 510 nM; IC50 [2, 6]: 500 ± 10 nM; inhibition of proliferation of MiaPaCa-2 cells [3]: increasing antiproliferative potencies
